By IC50 is commonly meant the concentration needed to halve the response being measured. Low readings indicate higher potency, high ones lower potency. As usually defined, the ΔTm is the shift of the melting midpoint relative to a reference.

The values that follow come from ChEMBL document CHEMBL1152498, “Minor structural differences of monomethine cyanine derivatives yield strong variation in their interactions with DNA, RNA as well as on their in vitro antiproliferative activity” (Bioorg Med Chem, 2009).

For test [1], the system named is HeLa. The test can be described thus: Cytotoxicity against human HeLa cells after 72 hrs by MTT assay. It counts as functional, cell-based. A general note: Formazan colour is commonly taken as a measure of viable cells.
Test [2] in a line: Cytotoxicity against human lymphocytes after 72 hrs by MTT assay. It counts as cell-based. To be noted: Lymphocyte.
Test [3] concerns Nucleic Acid. Description: Binding affinity to poly A-poly U assessed as thermal denaturation-associated change in melting temperature at pH 7 by tangent method. It counts as nucleic-acid assay.
The subject of test [4] is Nucleic Acid. The test can be described thus: Binding affinity to poly G single stranded RNA at pH 7 by fluorometric titration method. It counts as nucleic-acid assay.
Test [5] deals with Jurkat. Description: Cytotoxicity against human Jurkat cells after 72 hrs by MTT assay. It counts as functional, cell-based.
Test [6] has as its system Calf thymus DNA. The test can be described thus: Binding affinity to calf thymus double helix DNA assessed as thermal denaturation-associated change in melting temperature at pH 7 by tangent method. It counts as nucleic-acid assay. To be noted: Bos taurus.
Test [7] concerns Nucleic Acid. Description: Binding affinity to poly A single stranded RNA at pH 7 by fluorometric titration method. The class given is nucleic-acid assay.
Test [8] has as its system HuT78. The test can be described thus: Cytotoxicity against human HUT78 cells after 72 hrs by MTT assay. The class given is functional, cell-based. Particulars: HuT78, 72 h.
Test [9] in a line: Cytotoxicity against human Hep2 cells after 72 hrs by MTT assay. The class given is cell-based. To be noted: HEp-2, 72 h.
For test [10], the system named is Nucleic Acid. Description: Binding affinity to poly C single stranded RNA at pH 7 by fluorometric titration method. The class given is nucleic-acid assay.
In test [11] the test system is Calf thymus DNA. The test can be described thus: Binding affinity to calf thymus double stranded DNA at pH 7 by fluorometric titration method. It counts as nucleic-acid assay. Particulars: Bos taurus.
Test [12] has as its system NCI-H358. Description: Cytotoxicity against human NCI-H358 cells after 72 hrs by MTT assay. Particulars: NCI-H358, 72 h. It counts as functional, cell-based.
For test [13], the system named is SW-620. The test can be described thus: Cytotoxicity against human SW620 cells after 72 hrs by MTT assay. To be noted: SW-620, 72 h. It counts as functional, cell-based.
Test [14] relates to Nucleic Acid. Description: Binding affinity to poly U single stranded RNA at pH 7 by fluorometric titration method. The class given is nucleic-acid assay.
Test [15] deals with K562. Description: Cytotoxicity against human K562 cells after 72 hrs by MTT assay. It counts as functional, cell-based. Particulars: K562, 72 h.
Test [16] relates to Nucleic Acid. The test can be described thus: Binding affinity to double stranded RNA at pH 7 by fluorometric titration method. The class given is nucleic-acid assay.
Test [17] deals with Nucleic Acid. Description: Binding affinity to poly A-poly U at pH 7 by fluorometric titration method. It counts as nucleic-acid assay.
In test [18] the test system is Caco-2. Description: Cytotoxicity against human Caco-2 cells after 72 hrs by MTT assay. It counts as functional, cell-based. To be noted: Caco-2, 72 h.
Test [19] concerns MIA PaCa-2. The test can be described thus: Cytotoxicity against human MIAPaCa2 cells after 72 hrs by MTT assay. It counts as functional, cell-based. To be noted: MIA PaCa-2, 72 h.
For test [20], the system named is HT-29. Description: Cytotoxicity against human HT-29 cells after 72 hrs by MTT assay. Particulars: HT-29, 72 h. The class given is functional, cell-based.
Test [21] in a line: Cytotoxicity against HAEC after 72 hrs by MTT assay. Further details: species or system Homo sapiens.
In test [22] the test system is HeLa. The test can be described thus: Cytotoxicity against human HeLa cells at 0.1 uM after 60 mins by DAPI staining-based visible light microscopy. The class given is functional, cell-based.
Test [23] relates to Nucleic Acid. The test can be described thus: Binding affinity to nuclear DNA in human HeLa cells at 0.1 uM after 60 mins by DAPI staining-based fluorescence microscopy. It counts as cell-based.

Activity calls are given as the source filed them. No cut-off for these calls is given here.

Consider `CC1=C/C(=C/c2oc3ccccc3[n+]2C)N=C2Sc3cc(Cl)ccc3N12.[O-][Cl+3]([O-])([O-])[O-]`, for which the IC50 was found to be 3.9 µM in test [1]; 0.09 µM in [2]; 0.52 µM in test [5]; 0.06 µM in test [8]; 7 µM in [9]; 1.1 µM in [12]. Besides, the IC50 in test [13] worked out at 5.8 µM; in test [15], 0.06 µM; in [18] it was 8.2 µM; in [19] it was 2.1 µM; in [20], 5.1 µM; in [21], 50.3 µM. For the same compound, the values for the ΔTm in test [3] and in [6] were 0 °C and 1 °C, respectively. Moreover, the log Ks in [4] was greater than 6; in test [10], less than 4; in [11], 4.6; in test [14], less than 4; in test [17] it was 4.5. The result in [7] and in [16] was Active.

As to `CC1=C/C(=C/c2oc3ccccc3[n+]2C)C(C#N)=C2Sc3ccccc3N12.[O-][Cl+3]([O-])([O-])[O-]`, the IC50 in test [1] came out at 8.2 µM; in test [2], 0.1 µM; in test [5], 3.9 µM; in test [8], 0.5 µM; in test [9] it was 5.5 µM; in test [12] it was 2.4 µM. The half-inhibitory concentration (IC50) in test [13] is 6.8 µM; in test [15] it was 0.05 µM; in test [18] it was 9.6 µM; in test [19], 2.2 µM; in test [20], 5.9 µM; in test [21], 50.1 µM. Moreover, the ΔTm in [3] was determined as 19.5 °C; in [6], 4.1 °C. Moreover, the log Ks in [4] was greater than 6; in test [7], 6.2; in [10], less than 4; in test [11], 5.1; in test [14] it was less than 4; in test [17], 6.8. Moreover, the result in test [16] was Active.

For `CC1=C/C(=C/c2sc3ccccc3[n+]2C)N=C2Sc3cc(OCCO)ccc3N12.[O-][Cl+3]([O-])([O-])[O-]`, the half-inhibitory concentration (IC50) in [1] amounted to 80 µM; in test [2], 1.2 µM; in test [5], 0.9 µM; in test [8], 0.5 µM; in test [9] it was 0.93 µM; in [12], 2.1 µM. Moreover, the 50% inhibitory concentration (IC50) was 0.55 µM in [13]; 0.06 µM in [15]; greater than 100 µM in [18]; 0.51 µM in test [19]; 1.1 µM in [20]; greater than 200 µM in test [21]. The ΔTm in test [3] was determined as 0 °C; in [6], 1.3 °C. Moreover, the log Ks was greater than 6 in test [4]; less than 4 in test [10]; 4.8 in [11]; less than 4 in [14]; 4.5 in test [17]. Further, the outcome in test [7] and in test [16] was Active.

`CCOc1ccc2c(c1)SC1=N/C(=C\c3oc4ccccc4[n+]3C)C=C(C)N12.[O-][Cl+3]([O-])([O-])[O-]`: the half-inhibitory concentration (IC50) in test [1] came to 2 µM; in test [2] it was 0.01 µM; in test [5], 0.09 µM; in test [8], 0.05 µM; in test [9], 0.5 µM; in test [12], 0.1 µM. Also, the IC50 in test [13] was 0.1 µM; in test [15], 0.001 µM; in [18], 0.8 µM; in [19], 0.1 µM; in test [20] it was 0.6 µM; in test [21], 1 µM. For the same compound, the ΔTm in [3] is 0 °C; in [6], 4 °C. Also, the log Ks in [4] is greater than 6; in [10], less than 4; in test [11], 4.7; in [14], less than 4; in [17], 4.5. For the same compound, the outcome in test [7] and in [16] was Active.

For `CC1=C/C(=C/c2oc3ccccc3[n+]2C)N=C2Sc3cc(OCCO)ccc3N12.[O-][Cl+3]([O-])([O-])[O-]`, the half-inhibitory concentration (IC50) in test [1] came out at 80 µM; in test [2], 0.59 µM; in test [5], 6.6 µM; in [8], 0.7 µM; in [9], 6.8 µM; in test [12], 9 µM. The IC50 in test [13] was found to be 5.2 µM; in test [15], 0.07 µM; in test [18], 40 µM; in test [19] it was 8.5 µM; in test [20] it was 7.2 µM; in [21] it was 70 µM. In addition, the results for the ΔTm in test [3] and in test [6] were 0 °C and 0.8 °C, respectively. Also, the log Ks in [4] is greater than 6; in test [10], less than 4; in test [11], 4.6; in test [14], less than 4; in [17], 4.3. Further, the outcome in test [7] and in [16] was Active.

As for `CC1=C/C(=C/c2sc3ccccc3[n+]2C)N=C2C=CC=CN12.[O-][Cl+3]([O-])([O-])[O-]`, the 50% inhibitory concentration (IC50) in [1] was determined as 9.9 µM; in test [2], 0.6 µM; in [5], 1.3 µM; in [8] it was 0.2 µM; in [9] it was 3.6 µM; in [12] it was 2 µM. For the same compound, the half-maximal inhibitory concentration (IC50) is 7 µM in test [13]; 0.09 µM in [15]; 10.1 µM in test [18]; 1.8 µM in [19]; 5.2 µM in [20]; 9.6 µM in test [21]. The shift in melting temperature (ΔTm) in test [3] worked out at 10.4 °C; in [6], 1.9 °C. In addition, the result in test [4], in test [7], in test [10], in test [11], in test [14] and in test [16] was inactive.

On to `COc1ccc2c(c1)SC1=N/C(=C\c3oc4ccccc4[n+]3C)C=C(C)N12.[O-][Cl+3]([O-])([O-])[O-]`, for which the IC50 in [1] came to 2.1 µM; in test [2], 0.04 µM; in [5], 0.5 µM; in test [8] it was 0.1 µM; in test [9] it was 0.7 µM; in test [12], 0.8 µM. In addition, the concentration for half-maximal inhibition (IC50) in test [13] was found to be 0.6 µM; in test [15] it was 0.001 µM; in [18], 1 µM; in test [19] it was 0.5 µM; in [20], 0.5 µM; in test [21] it was 1.1 µM. Further, the ΔTm in [3] is 0 °C; in [6], 2.7 °C. For the same compound, the log Ks in test [4] is greater than 6; in test [10], less than 4; in test [11], 5; in test [14], less than 4. Moreover, the result in test [7] and in [16] was Active. In addition, the outcome in test [22] and in [23] was inactive.

On to `COc1ccc2c(c1)SC1=N/C(=C\c3sc4ccccc4[n+]3C)C=C(C)N12.[O-][Cl+3]([O-])([O-])[O-]`, for which the half-maximal inhibitory concentration (IC50) worked out at 0.5 µM in [1]; 0.1 µM in test [2]; 0.1 µM in test [5]; 0.01 µM in test [8]; 0.5 µM in test [9]; 0.6 µM in test [12]. Further, the IC50 came out at 0.2 µM in test [13]; 0.001 µM in test [15]; 0.8 µM in test [18]; 0.06 µM in [19]; 0.5 µM in test [20]; 3.3 µM in [21]. In addition, the values for the shift in melting temperature (ΔTm) in test [3] and in test [6] were 0 °C and 3 °C, respectively. Also, the log Ks is greater than 6 in [4]; less than 4 in test [10]; 4.5 in [11]; less than 4 in test [14]; 4.2 in test [17]. Also, the outcome in test [7] and in test [16] was Active. The outcome in [22] and in test [23] was inactive.
